Test results reported in patent publication US6380168B1, “Method for promoting hair growth” (Nomura Co., Ltd., priority 1992, dated 2002).
Where “and” joins values, the source holds several entries; their conditions need not be identical. Equal entries are not always repeated. One block for each compound: values may come before it.

Legend:
[1] = tested on: tyrosinase; assay: Tyrosinase inhibition (L-Dopa, dopachrome absorbance at 475 nm, procedure of Manson and Peterson); format: biochemical, mushroom
Procedure: This experiment was conducted according to the procedure of Manson and Peterson. A 0.5 ml L-Dopa solution (0.03% in pH6.8 PBS) was added to 0.5 ml of a test liquid, and incubated for 5 minutes at 25° C. After which, a 0.5 ml of tyrosinase solution (obtained from a mushroom) was added and the mixture was further incubated for 5 minutes at 25° C. […] Kojic acid was used for a positive control test.

[2] = Skin blood flow in rats after topical application, measured with a Laser Doppler Flowmeter; format: in vivo, Wistar male rats; conditions: rat, measured after 20 minutes
Procedure: Wistar male rats (180 to 200 g weights) were employed as experimental animals. The quantity of the skin blood in this experiment was measured with a Laser Doppler Flowmeter (PF2B, Perimed). The backs of rats were sheared. A day later, the rats were anesthetisized with urethane (1 g/Kg) and a quantity of blood flow was measured. This quantity was defined as a normal flow.
Immediately after the measurement of the normal flow, a group of rats were treated with topical application of 25 μl of test liquid in 50% ethanol solution and a group of rats were treated with topical application of 50% ethanol solution as a control. The skin blood flow was measured at 20 minute, 40 minute and 60 minute intervals. MeOH extract from Calanthe discolor Lindl. (CDM-ext: 0.5% and 2.0%), Calanthoside A (0-20%), and indilbin (0.2%) were tested, and the results for the extract are shown in Table 1.
The ability of Calanthoside B to increase skin blood flow can be used to promote hair growth.

% Inhibition ([1]; concentration 5 (μM)): 32.5% and 28.2% and 23.9%
% Inhibition ([1]; concentration 20 (μM)): 66.0% and 62.2% and 59.3%
% Inhibition ([1]; concentration 50 (μM)): 82.7% and 80.3% and 78.6%
anti-tyrosinase activity (result in words) ([1]; summary of Table 2): strong anti-tyrosinase activity
Structure (SMILES): O=c1cc(CO)occ1O [Kojic Acid, Kojic acid]

Structure (SMILES): OCC1O[C@@H](OCC2O[C@@H](Oc3c[nH]c4ccccc34)C(O)C(O)[C@@H]2O)C(O)C(O)[C@@H]1O (stereo partly drawn) [Calanthoside A, 3-O-β-D-glucopyranosyl (1-6)-β-D-glucopyranosylindole]
skin blood flow (result in words) ([2]; Calanthoside A (0-20%)): increases skin blood flow
% Inhibition ([1]; concentration 50 μg/ml): 38.6%
% Inhibition ([1]; concentration 200 μg/ml): 65.9%

Structure (SMILES): OCC1O[C@@H](Oc2c(S[C@@H]3OC(CO)[C@@H](O)C(O)C3O)[nH]c3ccccc23)C(O)C(O)[C@@H]1O (stereo partly drawn) [Calanthoside B, 2-S-β-D-glucopyranosyl-3-O-β-D-glucopyrannosyl-2-mercaptoindole]
skin blood flow (result in words) ([2]; 0.2%): increases skin blood flow
